One assay has as its system MM.1S cells. The experiment in a line: Proliferation inhibition (IC50) in multiple myeloma cells, cell viability with WST/CCK-8 reagent.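 Also: MM.1S B-lymphoblast cells at 15,000 per well in 100 µL serum-containing RPMI1640, experiment run more than three times.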 To be noted: Homo sapiens, MM1.S, 72 h, read-out: IC50 (half inhibitory concentration). For orientation: Tetrazolium assays rely on reduction of a dye to a coloured formazan, in cell work by metabolically active cells.
Procedure: Multiple myeloma cell line: MM.1S (B lymphoblast), purchased from ATCC (American Type Culture Collection). Culture medium was RPMI1640 supplemented with 10% FBS and 1% Penicillin-Streptomycin. The cells used were identified as correct cells by STR cells and negative for mycoplasma by routine inspections.
IC50 values of the compounds of the present disclosure were measured using Cell Titer Blue, Cell Titer GLO, or WST reagent from Promega Company. Assay details are as follows: Cells were seeded in 100 μL RPMI1640 complete medium containing serum at a density of 15,000 cells/well.
The experiment was repeated more than three times.
As to `O=C1CCC(N2C(=O)c3ccc(NCCCCCCCNC45CC6CC(CC(C6)C4)C5)cc3C2=O)C(=O)N1` (stereo not drawn) [SIAIS1221055, 5-((7-((adamantan-1-yl)amino)heptyl)amino)-2-(2,6-dioxopiperidin-3-yl)isoindoline-1,3-dione], the IC50 came out at 1.43 nM.
The same measure, in the same setting: the result for `O=C1CCC(N2Cc3cc(CCCCCCCCNC45CC6CC(CC(C6)C4)C5)ccc3C2=O)C(=O)N1` (stereo not drawn) [SIAIS271187, 3-(5-(8-((adamantan-1-yl)amino)octyl)-1-oxoisoindolin-2-yl)piperidine-2,6-dione] reads 17 nM; that for `O=C1CCC(N2Cc3c(OCCCCCCNCC45CC6CC(CC(C6)C4)C5)cccc3C2=O)C(=O)N1` (stereo not drawn) [SIAIS1222165, 3-(4-((6-(((adamantan-1-yl)methyl)amino)hexyl)oxy)-1-oxoisoindolin-2-yl)piperidine-2,6-dione], 0.204 nM.
Same read-out and setting: the same measure for `O=C1CCC(N2Cc3c(CCCCCCCNCC45CC6CC(CC(C6)C4)C5)cccc3C2=O)C(=O)N1` (stereo not drawn) [SIAIS1222021, 3-(4-(7-(((adamantan-1-yl)methyl)amino)heptyl)-1-oxoisoindolin-2-yl)piperidine-2,6-dione]: 0.781 nM; for `O=C1CCC(N2C(=O)c3cccc(NCCCCCCCNC4CCCCC4)c3C2=O)C(=O)N1` (stereo not drawn) [SIAIS1222039, 4-((7-(cyclohexylamino)heptyl)amino)-2-(2,6-dioxopiperidin-3-yl)isoindoline-1,3-dione]: 0.326 nM.
The same measure, in the same setting: the same measure for `CC1(C)[C@@H]2CC[C@@]1(C)[C@@H](NCCCCCCCNc1cccc3c1C(=O)N(C1CCC(=O)NC1=O)C3=O)C2` (stereo partly drawn) [SIAIS1222041, 2-(2,6-dioxopiperidin-3-yl)-4-((7-(((1R,2S,4R)-1,7,7-trimethylbicyclo[2.2.1]heptan-2-yl)amino)heptyl)amino)isoindoline-1,3-dione]: 0.383 nM; for `CC1(C)[C@@H]2CC[C@@]1(C)[C@@H](NCc1ccc(CNc3cccc4c3C(=O)N(C3CCC(=O)NC3=O)C4=O)cc1)C2` (stereo partly drawn) [SIAIS1221173, 2-(2,6-dioxopiperidin-3-yl)-4-((4-((((1R,2S,4R)-1,7,7-trimethylbicyclo[2.2.1]heptan-2-yl)amino)methyl)benzyl)amino)isoindoline-1,3-dione]: 1.09 nM.
As for `O=C1CCC(N2Cc3c(CCCCCCNC45CC6CC(CC(C6)C4)C5)cccc3C2=O)C(=O)N1` (stereo not drawn) [SIAIS1224043, 3-(4-(6-((adamantan-1-yl)amino)hexyl)-1-oxoisoindolin-2-yl)piperidine-2,6-dione], the IC50 was 0.63 nM.
On the same count and under the same terms, the same measure for `O=C1CCC(N2Cc3c(OCCCCCCNC45CC6CC(CC(C6)C4)C5)cccc3C2=O)C(=O)N1` (stereo not drawn) [SIAIS1222163, 3-(4-((6-((adamantan-1-yl)amino)hexyl)oxy)-1-oxoisoindolin-2-yl)piperidine-2,6-dione]: 2.11 nM; for `O=C1CCC(N2C(=O)c3cccc(NCCCCCCNC45CC6CC(CC(C6)C4)C5)c3C2=O)C(=O)N1` (stereo not drawn) [SIAIS1222093, 4-((6-((adamantan-1-yl)amino)hexyl)amino)-2-(2,6-dioxopiperidin-3-yl)isoindoline-1,3-dione]: 1.58 nM; for `O=C1CCC(N2C(=O)c3cccc(NCCCCCNC45CC6CC(CC(C6)C4)C5)c3C2=O)C(=O)N1` (stereo not drawn) [SIAIS1222095, 4-((5-((adamantan-1-yl)amino)pentyl)amino)-2-(2,6-dioxopiperidin-3-yl)isoindoline-1,3-dione]: 1.1 nM.
Same read-out and setting: the result for `O=C1CCC(N2Cc3c(NCCCCCCCNC45CC6CC(CC(C6)C4)C5)cccc3C2=O)C(=O)N1` (stereo not drawn) [SIAIS1221091, 3-(4-((7-((adamantan-1-yl)amino)heptyl)amino)-1-oxoisoindolin-2-yl)piperidine-2,6-dione] reads 1.51 nM; that for `O=C1CCC(N2C(=O)c3cccc(NCc4ccc(CNC56CC7CC(CC(C7)C5)C6)cc4)c3C2=O)C(=O)N1` (stereo not drawn) [SIAIS1222035, 4-((4-(((adamantan-1-yl)amino)methyl)benzyl)amino)-2-(2,6-dioxopiperidin-3-yl)isoindoline-1,3-dione], 2.46 nM.
On the same count and under the same terms, the result for `O=C1CCC(N2C(=O)c3cccc(NCCCCCCCNC45CC6CC(CC4C6)C5)c3C2=O)C(=O)N1` (stereo not drawn) [SIAIS1242041, 2-(2,6-dioxopiperidin-3-yl)-4-((7-((hexahydro-2,5-methanopentalen-3a(1H)-yl)amino)heptyl)amino)isoindoline-1,3-dione] reads 0.076 nM; that for `CN(CCCCCCCCc1cccc2c1CN(C1CCC(=O)NC1=O)C2=O)C12CC3CC(CC(C3)C1)C2` (stereo not drawn) [SIAIS1222031, 3-(4-(8-((adamantan-1-yl)(methyl)amino)octyl)-1-oxoisoindolin-2-yl)piperidine-2,6-dione], 0.27 nM.
For `O=C1CCC(N2Cc3c(NCc4ccc(CCNC56CC7CC(CC5C7)C6)cc4)cccc3C2=O)C(=O)N1` (stereo not drawn) [SIAIS1242061, 3-(4-((4-(2-((hexahydro-2,5-methanopentalen-3a(1H)-yl)amino)ethyl)benzyl)amino)-1-oxoisoindolin-2-yl)piperidine-2,6-dione], the IC50 was 0.107 nM.
On the same count and under the same terms, the result for `O=C1CCC(N2Cc3c(C#CCCCCCCNC45CC6CC(CC4C6)C5)cccc3C2=O)C(=O)N1` (stereo not drawn) [SIAIS1242057, 3-(4-(8-((hexahydro-2,5-methanopentalen-3a(1H)-yl)amino)oct-1-yn-1-yl)-1-oxoisoindolin-2-yl)piperidine-2,6-dione] reads 0.267 nM; that for `O=C1CCC(N2Cc3c(OCCCCCCCNC4CC5(CCC5)C4)cccc3C2=O)C(=O)N1` (stereo not drawn) [SIAIS1224013, 3-(1-oxo-4-((7-(spiro[3.3]heptan-2-ylamino)heptyl)oxy)isoindolin-2-yl)piperidine-2,6-dione], 0.534 nM; that for `CC(NCCCCCCCNc1cccc2c1C(=O)N(C1CCC(=O)NC1=O)C2=O)C12CC3CC(CC(C3)C1)C2` (stereo not drawn) [SIAIS1222193], 2.69 nM.
For the molecule `Nc1cccc2c1C(=O)N(C1CCC(=O)NC1=O)C2=O` (stereo not drawn) [pomalidomide, reference compound], the IC50 worked out at 9.4 ± 1.3 nM.
Same read-out and setting: the result for `O=C1CCC(N2Cc3c(CCCCCCCCNC4CCCCC4)cccc3C2=O)C(=O)N1` (stereo not drawn) [SIAIS1221193, 3-(4-(8-(cyclohexylamino)octyl)-1-oxoisoindolin-2-yl)piperidine-2,6-dione] reads 0.854 nM; that for `O=C1CCC(N2C(=O)c3cccc(NCCCCCCNCC45CC6CC(CC(C6)C4)C5)c3C2=O)C(=O)N1` (stereo not drawn) [SIAIS1222037, 4-((6-(((adamantan-1-yl)methyl)amino)hexyl)amino)-2-(2,6-dioxopiperidin-3-yl)isoindoline-1,3-dione], 0.13 nM.
In the case of `O=C1CCC(N2Cc3c(OCCCCCCCCNC45CC6CC(CC(C6)C4)C5)cccc3C2=O)C(=O)N1` (stereo not drawn) [SIAIS1222167, 3-(4-((8-((adamantan-1-yl)amino)octyl)oxy)-1-oxoisoindolin-2-yl)piperidine-2,6-dione], the IC50 worked out at 0.426 nM.

The assay is the same for the next values; noted with them: Homo sapiens, MM1.S, 72 h, read-out: IC50 (half inhibitory concentration), MM.1S multiple myeloma cells, WST reagent, 72 h treatment.
As for `O=C1CCC(N2C(=O)c3cccc(NCCCCCCCNC45CC6CC(CC(C6)C4)C5)c3C2=O)C(=O)N1` (stereo not drawn) [SIAIS1221053, 4-((7-((adamantan-1-yl)amino)heptyl)amino)-2-(2,6-dioxopiperidin-3-yl)isoindoline-1,3-dione], the IC50 is 0.16 ± 0.03 nM.

Source of the values: US20230096517A1, “GLUTARIMIDE SKELETON-BASED COMPOUNDS AND APPLICATION THEREOF” (SHANGHAITECH UNIVERSITY, priority 2020, published 2023).
